Experimental data as given in BindingDB's records for doi:10.1016/s0960-894x(99)00670-8 (Institute, 2000).
pKi: −log10 of the molar value.

Experiment: Binding affinity was determined against Opioid receptor delta 1 obtained from guinea pig brain membranes using [3H]naltrindole as radioligand

`C[C@H]1C2Cc3ccc(N)cc3[C@@]1(C)CCN2CC1CC1` [3-Cyclopropylmethyl-6,11-dimethyl-1,2,3,4,5,6-hexahydro-2,6-methano-benzo[d]azocin-8-ylamine] showed a pKi of 7.92.
